Experimental data published in patent publication US5714467A, “Antibacterial and antimalarial hybrid peptides” (The Rockefeller University, priority 1993, dated 1998).
Where no end group is shown, it is not given here.

Assays:
Sheep Red Cells = assay: lysis of sheep red blood cells (lysis assay or SRC plate assay); format: cell-based; conditions: for Lethal concentration, SRC = Sheep Red Cells: Table 3
Protocol: These values were obtained by either the lysis assay normally used for melittin or by an adaptation of the antibacterial inhibition zone assay of the above-cited Hultmark et al articles to plates with sheep red cells (SRC). With respect to the latter, sterile agarose plates contained 6 ml of medium With 1% agarose, 0.9% NaCl and 10% SRC suspended in Alsevers solution. A dilution series of peptide was applied in 3 mm wells each loaded with 3 μl of the respective samples. The plates were incubated at 30° C. for 24 h, the zones were recorded and LC values calculated as described in the Hultmark et al articles. Clear zones were recorded after a few hours of incubation and the use of such data gave an LC value of the same order as readings after 24 h. This plate assay is faster and more convenient than the lysis assay normally used for melittin.

Bacillus subtilis Bs11 = assay: inhibition zone assay, lethal concentration; format: cell-based
Protocol: (§1) The products of the invention were tested for activity against a variety of test organisms selected to represent a number of different types of pathogens some of them known to be particularly virulent by the inhibition zone assay of Hoffmann et al (1981) Insect Biochem. 11 537-548 which is incorporated herein by reference. Thin agar or agarose plates (8.5 cm diameter) were prepared with 6 ml of rich medium containing 100 ug/ml of streptomycin and 2×10^5 viable cells of a test organism resistant to streptomycin. Wells of […] diameter were punched in the plates and 3 ul of serially diluted samples were placed in the wells. The diameters of the zones of inhibition around the wells were measured after overnight incubation at 30° or 37° C. For each peptide the squares of the zone diameters were plotted against the logarithm of the concentration, and from the slopes and intercepts the lethal concentrations were calculated as described by Hultmark (1983) EMBO J. 2, 571-76 or Hultmark et al (1982) Eur. J. Biochem. 127 207-217 each of which being incorporated herein by reference.
(§2) It was observed during testing that basic peptides often bind to agar plates, but not so much to agarose. Therefore those lethal concentrations determined on agar may, in fact, be substantially higher than the actual lethal concentrations.
(§3) Novel peptides CA(1-8)M(1-18), CA(1-9)M(1-17), CB(1-13)M(1-13), CA(1-17)M(1-9), CA(1-18)M(1-8), M(1-13)CA(1-22) and M(1-13)CA(1-13) were prepared as described above (see Examples 1-6). These novel peptides and CA, CB, and M were tested for activity against a variety of organisms selected to represent a number of different types of pathogens, some of them known to be particularly virulent by the inhibition zone assay of Hoffmann et al (1981), Insect Biochem. 11 537-48. As in Examples 1-6, thin agarose plates were prepared with the respective organisms. The diameters of the zones of inhibition were measured after overnight incubation at 30° C. The lethal concentrations were determined as described above (see Examples 1-6; Hultmark et al articles cited thereat).

Escherichia coli D21 = assay: inhibition zone assay, lethal concentration; format: cell-based; conditions: for Lethal concentration, D21 = E. coli: Table 3, agarose plates, overnight incubation at 30° C.
Protocol: as §1, §2, §3

[1] = system: Staphylococcus aureus Cowan I; assay: inhibition zone assay, lethal concentration; format: cell-based; conditions: for Lethal concentration, Staph = S. aureus Cowan I: Table 3, agarose plates, overnight incubation at 30° C.
Protocol: as §1, §2, §3

Streptococcus pyogenes = assay: inhibition zone assay, lethal concentration; format: cell-based; conditions: for Lethal concentration, Strep = S. pyogenes: Table 3, agarose plates, overnight incubation at 30° C.
Protocol: as §1, §2, §3

[2] = system: Pseudomonas aeruginosa OT97; assay: inhibition zone assay, lethal concentration; format: cell-based; conditions: for Lethal concentration, OT97 = P. aeruginosa: Table 3, agarose plates, overnight incubation at 30° C.
Protocol: as §1, §2, §3

[3] = system: Staphylococcus haemolyticus; assay: inhibition zone assay, lethal concentration; format: cell-based; conditions: Table 2, footnote c: incubation overnight at 37° C.
Protocol: as §1, §2

Saccharomyces cerevisiae = assay: inhibition zone assay, lethal concentration; format: cell-based; conditions: Table 2, footnote c: incubation overnight at 37° C.
Protocol: as §1, §2

Candida albicans = assay: inhibition zone assay, lethal concentration; format: cell-based; conditions: Table 2, footnote c: incubation overnight at 37° C.
Protocol: as §1, §2

[4] = system: Xenorhabdus nematophilis Xn21; assay: inhibition zone assay, lethal concentration; format: cell-based; conditions: Table 2, footnote c: incubation overnight at 37° C.
Protocol: as §1, §2

[5] = system: Plasmodium falciparium strain F32 (Tanzania), blood stream forms; assay: inhibition of reinvasion of human red cells by malaria parasite; format: cell-based, Plasmodium falciparum; conditions: for IC50: Table 4, P. falciparum, read-out: 50% Reinvasion Inhibition; for antimalarial potency in words: FIG. 1, blood stream form of Plasmodium falciparium
Protocol: Hybrid peptides CA(1-13)M(1-13) and CA(1-8)M(1-18) were prepared as described above (see Examples 1-6) and were assayed for activity against the blood stream form of Plasmodium falciparium. For comparison the test included cecropins A and B and the frog skin peptides magainin 2 and PGLa.
The blood stream forms of the malaria parasite Plasmodium falciparium, primarily late trophozoites and early schizonts, were assayed by recording the inhibition of the reinvasion of human red cells by the method of Wahlin, B., et al, (1984) Proc. Nat'l Acad. Sci. USA 81, 7912-16, incorporated herein by reference. Quadruplicate microcultures of strain F32 (Tanzania) were incubated for 20 hrs at 37° C. in a complete tissue culture medium, with or without different concentrations of the peptides to be assayed. After acridine orange staining, the percentage of newly infected red cells was scored in a fluorescence microscope. For each culture 40,000 red cells were analysed for parasitic infection. Duplicate assays were run for CA(1-13)M(1-13).

Escherichia coli D22 = assay: inhibition zone assay, lethal concentration; format: cell-based; conditions: Table 2, footnote c: incubation overnight at 37° C.
Protocol: as §1, §2

Bacillus megaterium BM11 = assay: inhibition zone assay, lethal concentration; format: cell-based; conditions: Table 2, footnote c: incubation overnight at 37° C.
Protocol: as §1, §2

Micrococcus luteus Ml11 = assay: inhibition zone assay, lethal concentration; format: cell-based; conditions: Table 2, footnote c: incubation overnight at 37° C.
Protocol: as §1, §2

[6] = Table 2, footnote c: incubation overnight at 37° C.
[7] = Table 2, footnote a: incubation overnight at 30° C. as well as at 37° C.
[8] = Table 2, no incubation footnote

## CC[C@H](C)[C@H](NC(=O)CN)C(=O)NCC(=O)N[C@@H](C)C(=O)N[C@H](C(=O)N[C@@H](CC(C)C)C(=O)N[C@@H](CCCCN)C(=O)N[C@H](C(=O)N[C@@H](CC(C)C)C(=O)N[C@H](C(=O)N[C@H](C(=O)NCC(=O)N[C@@H](CC(C)C)C(=O)N[C@@H](CCCCN)C(=O)N[C@@H](Cc1c[nH]c2ccccc12)C(=O)N[C@@H](CCCCN)C(=O)N[C@@H](CC(C)C)C(=O)N[C@@H](Cc1ccccc1)C(=O)N[C@@H](CCCCN)C(=O)N[C@@H](CCCCN)C(=O)N[C@H](C(=O)N[C@@H](CCC(=O)O)C(=O)N[C@@H](CCCCN)C(=O)N[C@H](C(=O)NCC(=O)N[C@@H](CCC(N)=O)C(=O)N[C@@H](CC(N)=O)C(=O)N[C@H](C(=O)N[C@@H](CCCNC(=N)N)C(=O)N[C@@H](CC(=O)O)C(=O)NCC(=O)N[C@H](C(=O)N[C@H](C(=O)N[C@@H](CCCCN)C(=O)N[C@@H](C)C(N)=O)[C@@H](C)CC)[C@@H](C)CC)[C@@H](C)CC)C(C)C)[C@@H](C)CC)[C@@H](C)O)[C@@H](C)O)C(C)C)C(C)C [M(1-13)CA(1-22)]
Sheep Red Cells
  Lethal concentration, SRC = Sheep Red Cells: 40 µM

## CC[C@H](C)[C@H](NC(=O)CN)C(=O)NCC(=O)N[C@@H](C)C(=O)N[C@H](C(=O)N[C@@H](CC(C)C)C(=O)N[C@@H](CCCCN)C(=O)N[C@H](C(=O)N[C@@H](CC(C)C)C(=O)N[C@H](C(=O)N[C@H](C(=O)NCC(=O)N[C@@H](CC(C)C)C(=O)N1CCC[C@H]1C(=O)N[C@@H](C)C(=O)N[C@@H](CC(C)C)C(=O)N[C@H](C(=O)N[C@@H](CO)C(=O)N[C@@H](Cc1c[nH]c2ccccc12)C(=O)N[C@H](C(=O)N[C@@H](CCCCN)C(=O)N[C@@H](CCCNC(=N)N)C(=O)N[C@@H](CCCCN)C(=O)N[C@@H](CCCNC(=N)N)C(=O)N[C@@H](CCC(N)=O)C(=O)N[C@@H](CCC(N)=O)C(N)=O)[C@@H](C)CC)[C@@H](C)CC)[C@@H](C)O)[C@@H](C)O)C(C)C)C(C)C [M(1-26), Melittin]
Sheep Red Cells; Table 2, footnote b: incubation overnight at 30° C.
  Lethal concentration, Sheep Red Cells: 4 to 8 µM
Sheep Red Cells; [6]
  Lethal concentration, Sheep Red Cells: 4 to 6 µM
Sheep Red Cells
  Lethal concentration, SRC = Sheep Red Cells: 4 to 8 µM
Bacillus subtilis Bs11; Table 2, Medium E, no incubation footnote
  Lethal concentration, Bacillus subtilis Bs11 (Medium E): 0.3 µM
Bacillus subtilis Bs11; [7]
  Lethal concentration, Bacillus subtilis Bs11: 0.2 µM
Bacillus subtilis Bs11; Table 3, agarose plates, overnight incubation at 30° C.
  Lethal concentration, Bs11 = B. subtilis: 0.2 µM
Bacillus subtilis Bs11; Table 3, medium E, agarose plates, overnight incubation at 30° C.
  Lethal concentration, Bs11 + ME = B. subtilis, plates prepared with medium E: 0.3 µM
Escherichia coli D21; [7]
  Lethal concentration, Escherichia coli D21: 0.8 µM
Escherichia coli D21
  Lethal concentration, D21 = E. coli: 0.8 µM
[1]; [7]
  Lethal concentration, Staphylococcus aureus Cowan I: 0.2 µM
[1]
  Lethal concentration, Staph = S. aureus Cowan I: 0.2 µM
Streptococcus pyogenes; [7]
  Lethal concentration, Streptococcus pyogenes: 0.5 µM
Streptococcus pyogenes
  Lethal concentration, Strep = S. pyogenes: 0.5 µM
[2]; [7]
  Lethal concentration, Pseudomonas aeruginosa OT97: 3 µM
[2]
  Lethal concentration, OT97 = P. aeruginosa: 3 µM
[3]
  Lethal concentration, Staphylococcus haemolyticus: 0.3 µM
Saccharomyces cerevisiae
  Lethal concentration, Saccharomyces cerevisiae: 10 µM
Candida albicans
  Lethal concentration, Candida albicans: 150 µM
[4]
  Lethal concentration, Xenorhabdus nematophilis Xn21: 9 to 50 µM

## CC[C@H](C)[C@H](NC(=O)CNC(=O)[C@H](CCC(N)=O)NC(=O)[C@H](CCC(N)=O)NC(=O)[C@H](CCCNC(=N)N)NC(=O)[C@H](CCCCN)NC(=O)[C@H](CCCNC(=N)N)NC(=O)[C@H](CCCCN)NC(=O)[C@@H](NC(=O)[C@H](Cc1c[nH]c2ccccc12)NC(=O)[C@H](CO)NC(=O)[C@@H](NC(=O)[C@@H](N)CC(C)C)[C@@H](C)CC)[C@@H](C)CC)C(=O)NCC(=O)N[C@@H](C)C(=O)N[C@H](C(=O)N[C@@H](CC(C)C)C(=O)N[C@@H](CCCCN)C(=O)N[C@H](C(=O)N[C@@H](CC(C)C)C(=O)N[C@H](C(=O)N[C@H](C(=O)NCC(=O)N[C@@H](CC(C)C)C(N)=O)[C@@H](C)O)[C@@H](C)O)C(C)C)C(C)C [M(16-26)M(1-13)]
Sheep Red Cells; 240 μM versus 4-6 μM
  improvement in red cell lysis concentration over natural melittin: 40-60 fold
Sheep Red Cells; [7]
  Lethal concentration, Sheep Red Cells: > 200 µM
Sheep Red Cells; running text
  concentration lytic to sheep red blood cells: > 240 µM

## Cecropin P-1
[5]
  IC50: 90 µM

## KWKLFKKAVLKVLTT-NH2 [CA(1-7)M(4-11)]
Sheep Red Cells; [8]
  Lethal concentration, Sheep Red Cells: > 600 µM

## KWKLFKKGAVLKVLT-NH2 [CA(1-7)M(3-10)]
Sheep Red Cells; [8]
  Lethal concentration, Sheep Red Cells: > 600 µM

## KWKLFKKGIGAVLKV-NH2 [CA(1-7)M(1-8)]
Sheep Red Cells; [8]
  Lethal concentration, Sheep Red Cells: > 200 µM

## KWKLFKKIEKVGQNIRDGGIGAVLKV-NH2 [CA(1-18)M(1-8)]
Sheep Red Cells
  Lethal concentration, SRC = Sheep Red Cells: 600 µM

## KWKLFKKIEKVGQNIRDGIGAVLKVL-NH2 [CA(1-17)M(1-9)]
Sheep Red Cells
  Lethal concentration, SRC = Sheep Red Cells: 600 µM

## KWKLFKKIGAVLKVL-NH2 [CA(1-7)M(2-9)]
Sheep Red Cells; [8]
  Lethal concentration, Sheep Red Cells: > 600 µM

## KWKLFKKIGIGAVLKVLT-NH2 [CA(1-8)M(1-10)]
Sheep Red Cells; [8]
  Lethal concentration, Sheep Red Cells: > 600 µM

## KWKLFKKLKVLTTGL-NH2 [CA(1-7)M(6-13)]
Sheep Red Cells; [8]
  Lethal concentration, Sheep Red Cells: > 500 µM

## KWKLFKKVLKVLTTG-NH2 [CA(1-7)M(5-12)]
Sheep Red Cells; [8]
  Lethal concentration, Sheep Red Cells: > 500 µM

## KWKVFKKIEKMGRNIRNGIVKAGPAIAVLGEAKAL-NH2 [CB(1-35), Cecropin B]
Escherichia coli D21
  Lethal concentration, D21 = E. coli: 0.3 µM
[1]
  Lethal concentration, Staph = S. aureus Cowan I: 200 µM
Streptococcus pyogenes
  Lethal concentration, Strep = S. pyogenes: 12 µM
[2]
  Lethal concentration, OT97 = P. aeruginosa: 1 µM
[5]
  antimalarial potency in words: about as potent as Mag
  IC50: 110 µM

## PGLa [PGL^a]
[5]
  antimalarial potency in words: intermediate activity
  IC50: 40 µM

## WNPFKELEKVGQRVRDAVISAGPAVATVAQATALAK-NH2 [CD(2-37), Cecropin D]
Bacillus subtilis Bs11; [6]
  Lethal concentration, Bacillus subtilis Bs11: 100 µM
Escherichia coli D21; [6]
  Lethal concentration, Escherichia coli D21: 3.6 µM
[2]; [6]
  Lethal concentration, Pseudomonas aeruginosa OT97: 90 µM
Escherichia coli D22
  Lethal concentration, Escherichia coli D22: 0.6 µM
Bacillus megaterium BM11
  Lethal concentration, Bacillus megaterium BM11: 30 µM
Micrococcus luteus Ml11
  Lethal concentration, Micrococcus luteus Ml11: 12 µM

## magainin 2
[5]
  IC50: 80 µM
